# Key:
# [1] = Radiochemical stability in the final formulation; type: physicochemical; details: at 1 h after the end of radiosynthesis
# Description: [^11C]TASP0390136, [^11C]TASP0410457, and [^11C]TASP0434988 were synthesized as shown in Fig. 1a–c (detailed procedures are described in Additional file 1: Supplemental methods) using a homemade automated synthesis system. The radiochemical purities and specific activities of the radioligands, which were analyzed as described in Additional file 1: Supplemental Methods, along with their radiochemical yields and average synthesis times, are summarized in Table 1. Analytical HPLC chromatogram of each radioligand is shown in Additional file 2-4: Figures S1-S3. The radiochemical stabilities of [^11C]TASP0410457 and [^11C]TASP0434988 in the final formulation were >99 % at 1 h and 40 min, respectively, after the end of radiosynthesis.
# H3Rs = experiment: In vitro autoradiography, monkey brain sections; type: binding, rhesus monkey; details: in the presence of 10 μM of unlabelled TASP0410457 or ciproxifan
# Description: Twenty-micrometer-thick sagittal rat and monkey brain sections were incubated in an autoradiography buffer containing 5 nM [^11C]TASP0410457 as described in Additional file 1: Supplemental methods. The binding was also performed in the presence of 10 μM of unlabeled TASP0410457, thioperamide, or ciproxifan for the rat sections and 10 μM of TASP0410457 or ciproxifan for the monkey sections to assess the specific radioligand binding.
# (25:75) at a flow rate of 1 mL/min. A representative chromatogram of [11C]TASP0390136 is shown in […]
# Twenty-micrometer-thick sagittal rat brain sections were pre-incubated with autoradiography buffer (50 mM Tris containing 120 mM NaCl, 2 mM KCl, 1 mM MgCl2, and 1 mM CaCl2, pH7.4) for 30 min, then incubated in the autoradiography buffer containing 5 nM [11C]TASP0410457 at 25°C for 1 h. The sections were washed two times with ice-cold autoradiography buffer for 5 min, rinsed with ice-cold water for 10 s, and then quickly dried. The radioactivity retained on the sections was determined using a BAS imaging plate and the BAS5000 system (GE Healthcare, Piscataway, NJ). For a blocking study, brain slices were reacted with [11C]TASP0410457 in the presence of […] of TASP0410457, thioperamide, or ciproxifan.
# Similarly, autoradiography using […] sagittal rhesus monkey brain sections was conducted. […]
# [2] = design: method as in K. Kawamura, personal communication, 2015; details: mice; 30 min after intravenous injection; pilot assays; ref K. Kawamura, personal communication, 2015; cited from earlier work
# [3] = design: method as in earlier work; details: humans; at 30 min; ref Kimura et al., manuscript submitted to Eur J Nucl Med Mol Imaging; cited from earlier work
compound,measurement,setting,value
[11CH3]Oc1ccc(N2C(=O)CCc3cc(OC4CCN(C5CCC5)CC4)ccc32)cn1 [[^11C]TASP0410457],radiochemical stability in the final formulation,[1],> 99%
same,binding in the monkey cerebellum and brainstem under blockade,H3Rs,noticeably decreased
same,metabolite share of radioactivity in the brain,[2],approximately 50%
same,share of total plasma radioactivity arising from the metabolite,[3],13%

# — publication PMC4747952, “Development of TASP0410457 (TASP457), a novel dihydroquinolinone derivative as a PET radioligand for central histamine H3 receptors” (EJNMMI Research, 2016)
